The text below walks through data of ChEMBL document CHEMBL4007467, “Effects of 6-paradol, an unsaturated ketone from gingers, on cytochrome P450-mediated drug metabolism” (Bioorg Med Chem Lett, 2017).

pIC50: −log10 of the molar value.

Holding throughout (assay type): ADME
One series addresses T1, CYP2A6 (Homo sapiens, UniProt P11509).
T1 sequence (P11509 whole entry): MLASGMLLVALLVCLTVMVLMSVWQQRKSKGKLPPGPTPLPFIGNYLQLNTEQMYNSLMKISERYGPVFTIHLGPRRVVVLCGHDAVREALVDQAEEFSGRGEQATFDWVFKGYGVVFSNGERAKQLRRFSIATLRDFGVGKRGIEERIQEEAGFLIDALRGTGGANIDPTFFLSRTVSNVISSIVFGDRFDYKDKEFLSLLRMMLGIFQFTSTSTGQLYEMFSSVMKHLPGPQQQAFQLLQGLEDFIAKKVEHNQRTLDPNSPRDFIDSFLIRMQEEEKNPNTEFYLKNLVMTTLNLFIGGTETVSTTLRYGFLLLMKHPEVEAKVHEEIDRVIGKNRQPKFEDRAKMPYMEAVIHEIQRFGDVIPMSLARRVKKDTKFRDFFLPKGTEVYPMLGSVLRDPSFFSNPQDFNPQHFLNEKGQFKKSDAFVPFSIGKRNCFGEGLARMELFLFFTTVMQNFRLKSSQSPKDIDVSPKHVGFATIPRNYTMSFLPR
As to the kind of experiment: Inhibition of CYP2A6 in human liver microsomes assessed as enzyme-mediated metabolite formation at 10 uM using coumarin as substrate incubated for 5 mins followed by NADPH addition measured after 30 mins by LC-MS/MS analysis relative to control. The arrangement: scale not given: the % may be the effect or the level left. The settings on record: probe coumarin, read-out: Activity. For orientation: Liver microsomes are a subcellular fraction often used to study metabolism.

In series [1] the target is T2, CYP2C8 (Homo sapiens, UniProt P10632).
T2 sequence (P10632 whole entry): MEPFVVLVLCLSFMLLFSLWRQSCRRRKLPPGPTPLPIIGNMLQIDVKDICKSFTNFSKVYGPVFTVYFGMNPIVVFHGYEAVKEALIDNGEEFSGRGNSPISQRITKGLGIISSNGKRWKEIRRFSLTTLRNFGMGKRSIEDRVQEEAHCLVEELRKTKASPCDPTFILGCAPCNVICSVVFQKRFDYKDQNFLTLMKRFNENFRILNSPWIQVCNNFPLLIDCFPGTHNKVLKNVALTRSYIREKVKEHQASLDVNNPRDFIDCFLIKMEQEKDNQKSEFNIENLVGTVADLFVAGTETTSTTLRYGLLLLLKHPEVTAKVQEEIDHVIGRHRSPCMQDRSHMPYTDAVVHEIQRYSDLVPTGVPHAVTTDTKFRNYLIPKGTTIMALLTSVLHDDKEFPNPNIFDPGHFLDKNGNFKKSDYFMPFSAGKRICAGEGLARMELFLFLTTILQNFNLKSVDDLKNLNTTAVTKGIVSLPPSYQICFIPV
As to the kind of experiment: Inhibition of CYP2C8 in human liver microsomes assessed as enzyme-mediated metabolite formation at 0.1 uM using paclitaxel as substrate incubated for 5 mins followed by NADPH addition measured after 30 mins by LC-MS/MS analysis relative to control. The settings on record: probe paclitaxel, read-out: Activity. The arrangement: scale not given: the % may be the effect or the level left.

Series [2] concerns the target T3, CYP2C9 (Homo sapiens, UniProt P11712). Nature of the series: Inhibition of CYP2C9 in human liver microsomes assessed as enzyme-mediated metabolite formation at 3 uM using diclofenac as substrate incubated for 5 mins followed by NADPH addition measured after 30 mins by LC-MS/MS analysis relative to control. The settings on record: probe diclofenac, read-out: Activity. The arrangement: scale not given: the % may be the effect or the level left.

Series [3] deals with T4, CYP3A4 (Homo sapiens, UniProt P08684). As to the kind of experiment: Inhibition of CYP3A4 in human liver microsomes assessed as enzyme-mediated metabolite formation at 1 uM using midazolam as substrate incubated for 5 mins followed by NADPH addition measured after 30 mins by LC-MS/MS analysis relative to control. Details: scale not given: the % may be the effect or the level left. To be noted: probe midazolam, read-out: Activity.

Series [4] concerns the target T5, CYP1A2 (Homo sapiens, UniProt P05177).
T5 sequence (P05177 whole entry): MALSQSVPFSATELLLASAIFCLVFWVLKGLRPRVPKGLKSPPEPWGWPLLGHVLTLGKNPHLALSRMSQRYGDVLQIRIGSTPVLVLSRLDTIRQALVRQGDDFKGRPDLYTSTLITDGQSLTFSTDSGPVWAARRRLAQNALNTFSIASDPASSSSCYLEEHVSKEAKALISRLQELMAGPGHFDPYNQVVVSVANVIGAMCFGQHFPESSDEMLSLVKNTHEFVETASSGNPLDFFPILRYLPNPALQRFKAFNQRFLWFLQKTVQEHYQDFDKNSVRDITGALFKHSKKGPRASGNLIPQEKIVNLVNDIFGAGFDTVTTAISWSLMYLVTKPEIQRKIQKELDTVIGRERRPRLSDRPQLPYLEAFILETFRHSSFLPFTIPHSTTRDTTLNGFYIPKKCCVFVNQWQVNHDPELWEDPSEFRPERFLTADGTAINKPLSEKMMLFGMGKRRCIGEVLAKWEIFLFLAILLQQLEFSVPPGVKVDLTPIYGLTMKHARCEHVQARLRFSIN
As to the kind of experiment: Inhibition of CYP1A2 in human liver microsomes assessed as enzyme-mediated metabolite formation at 0.1 uM using phenacetin as substrate preincubated for 20 mins followed by substrate addition measured after 30 mins in presence of NADPH by LC-MS/MS analysis relative to control. Details: scale not given: the % may be the effect or the level left. The settings on record: probe phenacetin, read-out: Activity.

In series [5] the target is T5, CYP1A2. As to the kind of experiment: Inhibition of CYP1A2 in human liver microsomes assessed as enzyme-mediated metabolite formation at 3 uM using phenacetin as substrate preincubated for 20 mins followed by substrate addition measured after 30 mins in presence of NADPH by LC-MS/MS analysis relative to control. The arrangement: scale not given: the % may be the effect or the level left. The settings on record: probe phenacetin, read-out: Activity.

In the next series the target is T6, Cytochrome P450 1A2 (Homo sapiens, UniProt P05177).
T6 sequence (P05177 whole entry): T5 sequence (P05177 whole entry)
Nature of the series: Inhibition of CYP1A2 in human liver microsomes using phenacetin as substrate preincubated for 20 mins followed by substrate addition measured after 30 mins in presence of NADPH by LC-MS/MS analysis.

Series [6] has as its target T2, CYP2C8. Nature of the series: Inhibition of CYP2C8 in human liver microsomes assessed as enzyme-mediated metabolite formation at 3 uM using paclitaxel as substrate preincubated for 20 mins followed by substrate addition measured after 30 mins in presence of NADPH by LC-MS/MS analysis relative to control. The arrangement: scale not given: the % may be the effect or the level left. To be noted: probe paclitaxel, read-out: Activity.

The target in series [7] is T3, CYP2C9. As to the kind of experiment: Inhibition of CYP2C9 in human liver microsomes assessed as enzyme-mediated metabolite formation at 10 uM using diclofenac as substrate preincubated for 20 mins followed by substrate addition measured after 30 mins in presence of NADPH by LC-MS/MS analysis relative to control. The arrangement: scale not given: the % may be the effect or the level left. To be noted: probe diclofenac, read-out: Activity.

A further series deals with Cytochrome P450 2C9 (Homo sapiens, UniProt P11712). As to the kind of experiment: Inhibition of CYP2C9 in human liver microsomes using diclofenac as substrate preincubated for 20 mins followed by substrate addition measured after 30 mins in presence of NADPH by LC-MS/MS analysis.
Series [8] concerns the target T4, CYP3A4. As to the kind of experiment: Inhibition of CYP3A4 in human liver microsomes assessed as enzyme-mediated metabolite formation at 0.3 uM using midazolam as substrate preincubated for 20 mins followed by substrate addition measured after 30 mins in presence of NADPH by LC-MS/MS analysis relative to control. The arrangement: scale not given: the % may be the effect or the level left. To be noted: probe midazolam, read-out: Activity.

A further series has as its target Cytochrome P450 2C19 (Homo sapiens, UniProt P33261). As to the kind of experiment: Inhibition of human CYP2C19 using (S)-mephenytoin as substrate incubated for 5 mins followed by NADPH addition measured after 30 mins by LC-MS/MS analysis.

Cytochrome P450 2C19, sequence (P33261 whole entry): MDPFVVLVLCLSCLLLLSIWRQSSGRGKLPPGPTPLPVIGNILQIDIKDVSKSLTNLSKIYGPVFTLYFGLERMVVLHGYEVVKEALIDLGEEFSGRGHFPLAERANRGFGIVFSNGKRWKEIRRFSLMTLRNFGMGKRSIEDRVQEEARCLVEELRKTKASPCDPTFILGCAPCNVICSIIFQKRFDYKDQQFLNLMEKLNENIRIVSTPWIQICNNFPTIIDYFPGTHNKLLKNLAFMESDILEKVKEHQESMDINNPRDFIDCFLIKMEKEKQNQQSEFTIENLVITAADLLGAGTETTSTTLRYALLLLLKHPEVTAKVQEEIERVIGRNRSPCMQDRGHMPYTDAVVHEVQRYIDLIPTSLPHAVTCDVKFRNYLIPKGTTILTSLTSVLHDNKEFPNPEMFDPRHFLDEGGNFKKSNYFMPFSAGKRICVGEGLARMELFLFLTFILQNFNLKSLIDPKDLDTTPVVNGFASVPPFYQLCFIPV
T4 sequence (P08684 whole entry): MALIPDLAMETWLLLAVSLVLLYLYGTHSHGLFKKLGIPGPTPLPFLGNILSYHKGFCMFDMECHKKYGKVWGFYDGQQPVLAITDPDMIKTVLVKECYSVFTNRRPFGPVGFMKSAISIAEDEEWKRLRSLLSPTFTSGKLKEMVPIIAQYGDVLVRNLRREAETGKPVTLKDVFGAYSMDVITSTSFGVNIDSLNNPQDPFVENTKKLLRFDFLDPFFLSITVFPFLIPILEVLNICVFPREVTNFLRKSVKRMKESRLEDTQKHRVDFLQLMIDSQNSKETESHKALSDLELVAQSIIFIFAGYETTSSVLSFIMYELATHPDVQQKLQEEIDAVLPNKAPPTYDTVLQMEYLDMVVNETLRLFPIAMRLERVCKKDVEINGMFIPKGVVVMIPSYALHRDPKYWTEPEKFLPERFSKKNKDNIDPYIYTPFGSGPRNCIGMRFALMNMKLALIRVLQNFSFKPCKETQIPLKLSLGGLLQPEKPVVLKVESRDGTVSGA
T3 sequence (P11712 whole entry): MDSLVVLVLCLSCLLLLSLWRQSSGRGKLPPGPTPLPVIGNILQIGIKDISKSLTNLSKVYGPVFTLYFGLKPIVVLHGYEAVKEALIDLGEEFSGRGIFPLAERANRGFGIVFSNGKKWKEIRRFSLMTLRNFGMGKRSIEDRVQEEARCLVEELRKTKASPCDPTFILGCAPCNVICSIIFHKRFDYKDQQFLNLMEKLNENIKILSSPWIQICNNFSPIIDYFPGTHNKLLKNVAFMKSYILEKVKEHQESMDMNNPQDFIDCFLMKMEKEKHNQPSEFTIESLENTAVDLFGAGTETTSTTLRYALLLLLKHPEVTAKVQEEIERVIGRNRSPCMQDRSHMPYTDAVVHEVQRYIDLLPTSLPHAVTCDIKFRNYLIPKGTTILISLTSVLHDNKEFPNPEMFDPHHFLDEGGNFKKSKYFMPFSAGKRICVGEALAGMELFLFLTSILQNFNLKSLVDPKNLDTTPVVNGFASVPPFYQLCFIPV
Cytochrome P450 2C9, sequence (P11712 whole entry): as above

Regarding `CCCCCCCC(=O)CCc1ccc(O)c(OC)c1`, the activity at 0.5 h, 10 µM was found to be 81.5% on CYP2A6 and 60.8% at CYP2C9 [7]. For the same molecule, the activity at 0.5 h, 0.1 µM at CYP2C8 [1] is 88.7%; on CYP1A2 [4] it was 97.2%. Besides, the activity at 0.5 h, 3 µM was 68.1% at CYP2C9 [2], 76.5% at CYP1A2 [5] and 56.6% at CYP2C8 [6]. Besides, the activity at 0.5 h, 1 µM at CYP3A4 [3] amounted to 88.5%. The results for the pIC50 at Cytochrome P450 1A2, on Cytochrome P450 2C9 and against Cytochrome P450 2C19 were 4.71, 5.00 and 5.24, respectively. Besides, the activity at 0.5 h, 0.3 µM on CYP3A4 [8] stood at 88.9%. In addition, at Cytochrome P450 2C19 (human, 0.5 h), the “inhibition (INH)” value was “Dose-dependent effect”.
